From ChEMBL document CHEMBL1144595, “Novel pyridinyl and pyrimidinylcarbazole sulfonamides as antiproliferative agents” (Bioorg Med Chem Lett, 2007)

Assays:
Format in all cases: functional, cell-based
[1] = Antiproliferative activity against human DND1 cells
CCRF-CEM = assay: Cytotoxicity against human CEM cells
DU-145 = assay: Antiproliferative activity against human DU145 cells
MCF7 = assay: Antiproliferative activity against human MCF7 cells
PC-3 = assay: Antiproliferative activity against human PC3 cells
Bel-7402 = assay: Antiproliferative activity against human Bel-7402 cells
MOLT-3 = assay: Antiproliferative activity against human Molt3 cells

SMILES	IC50 (CCRF-CEM) [nM]	other results
COc1ccc(/C=C\c2cc(OC)c(OC)c(OC)c2)cc1O [COMBRETASTATIN A4]	–	IC50 [1]: 2.5 nM
CCn1c2ccccc2c2cc(S(=O)(=O)Nc3cccnc3OC)ccc21	786	–
COc1ccc(/C=C/c2ccc(OC)c(O)c2)c(OC)n1	> 2000	–
CCn1c2ccccc2c2cc(S(=O)(=O)Nc3ccc(OC)nc3)ccc21	649	–
CCn1c2ccccc2c2cc(S(=O)(=O)Nc3cc(OC)nc(OC)n3)ccc21	> 2000	–
COc1ccc(NS(=O)(=O)c2ccc3c(c2)c2ccccc2n3C)c(OC)n1	101	–
CCn1c2ccccc2c2cc(S(=O)(=O)Nc3cc(OC)c(OC)c(OC)c3)ccc21	56	IC50 [1]: 89 nM
CCn1c2ccccc2c2cc(S(=O)(=O)Nc3ccc(C)nc3C)ccc21	> 2000	–
CCn1c2ccccc2c2cc(S(=O)(=O)Nc3ccc(OC)nc3OC)ccc21	122	IC50 (DU-145): 729 nM; IC50 (MCF7): 241 nM; IC50 (PC-3): 603 nM; IC50 (Bel-7402): 976 nM; IC50 (MOLT-3): 22 nM; IC50 [1]: 193 nM
CCn1c2ccccc2c2cc(S(=O)(=O)Nc3ccc(OC)cc3OC)ccc21	57	IC50 [1]: 120 nM
CCn1c2ccccc2c2cc(S(=O)(=O)Nc3ccc(Cl)nc3Cl)ccc21	> 2000	–
COc1ccc(NS(=O)(=O)c2ccc3c(c2)CCN3C)c(OC)n1	> 2000	–
CCn1c2ccccc2c2cc(S(=O)(=O)Nc3cc(Cl)nc(Cl)c3)ccc21	> 2000	–
COc1ccc(/C=C\c2ccc(OC)c(O)c2)c(OC)n1	342	–
CCn1c2ccccc2c2cc(S(=O)(=O)Nc3cc(OC)ncn3)ccc21	> 2000	–
COc1cc([C@@H]2c3cc4c(cc3[C@H](O)[C@H]3COC(=O)[C@H]23)OCO4)cc(OC)c1OC [PODOFILOX]	7.2	IC50 [1]: 12 nM
CCn1c2ccccc2c2cc(/C=C/c3ccc(OC)nc3OC)ccc21	> 2000	–
CCn1c2ccccc2c2cc(/C=C\c3ccc(OC)nc3OC)ccc21	> 2000	–
CCn1c2ccccc2c2cc(S(=O)(=O)Nc3nc(OC)cc(OC)n3)ccc21	> 2000	–
COc1ccc(NS(=O)(=O)c2ccc3c(ccn3C)c2)c(OC)n1	712	–
